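Cells were grown in 96-well plates and exposed to each compound for 48 hours at five concentrations; endpoints were interpolated linearly between bracketing concentrations, or set to the highest concentration if not reached. Abbreviation: GI50, concentration required for 50% inhibition of growth. The concentration for full growth arrest is given as TGI.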 Where a SMILES comes first, the peptide text is derived from it. [ ]: non-standard residue; d: D form. The star is where a group is joined. Phe(4-NO2) = N[CH](Cc1ccc([N+](=O)[O-])cc1)C(=O)O; Boc = CC(C)(C)OC(=O)*
Assays:
Experiment in all cases: NCI-60 cell line screen, 48 h
IGROV1 ovarian = tested on: IGROV1 ovarian
OVCAR-4 ovarian = tested on: OVCAR-4 ovarian
HCC-2998 colon = tested on: HCC-2998 colon
SK-OV-3 ovarian = tested on: SK-OV-3 ovarian
RPMI-8226 leukemia = tested on: RPMI-8226 leukemia
SF-295 CNS = tested on: SF-295 CNS
KM12 colon = tested on: KM12 colon
RXF 393 renal = tested on: RXF 393 renal
DU-145 prostate = tested on: DU-145 prostate
BT-549 breast = tested on: BT-549 breast

Row | SMILES | TGI (IGROV1 ovarian) | TGI (OVCAR-4 ovarian) | TGI (HCC-2998 colon) | TGI (SK-OV-3 ovarian) | TGI (RPMI-8226 leukemia) | TGI (SF-295 CNS) | TGI (KM12 colon) | TGI (RXF 393 renal) | TGI (DU-145 prostate) | TGI (BT-549 breast) | GI50 (IGROV1 ovarian) | GI50 (OVCAR-4 ovarian) | GI50 (RXF 393 renal) | GI50 (HCC-2998 colon) | GI50 (DU-145 prostate) | GI50 (RPMI-8226 leukemia) | GI50 (SF-295 CNS) | GI50 (KM12 colon)
1 | Cc1cc2c(=O)c3ccc(Cl)cc3[nH]c2c(C(N)=O)c1C | > 100 µM | > 100 µM | > 100 µM | > 100 µM | > 100 µM | > 100 µM | > 100 µM |  |  |  |  |  |  |  |  |  |  | 
2 | O=C1CC(c2ccsc2)n2cccc21 (stereo not drawn) | > 100 µM | > 100 µM | > 100 µM | > 100 µM | > 100 µM | > 100 µM | > 100 µM | > 100 µM | > 100 µM |  |  |  |  |  |  |  |  | 
3 | N/N=C(/N)SCCCCCCCCCCS/C(N)=N/N | 69.9 µM |  | 59.6 µM |  | 70.8 µM | 60.9 µM | 67.3 µM |  | > 100 µM | 68.7 µM |  |  |  |  |  |  |  | 
4 | C=C(CN(CC)CC)C1(c2ccccc2)CC2(CCCC2)C(=O)O1 (stereo not drawn) | > 100 µM | > 100 µM | > 100 µM | > 100 µM | > 100 µM | > 100 µM | > 100 µM | > 100 µM | > 100 µM |  |  |  |  |  |  |  |  | 
5 | Cc1cn(C2CC(COCc3ccccc3)N(CCO[Si](C)(C)C(C)(C)C)O2)c(=O)[nH]c1=O (stereo not drawn) |  | 33.4 µM |  | 31.4 µM | 34.1 µM | 29.9 µM | 31.1 µM | 29 µM | 31 µM |  |  |  |  |  |  |  |  | 
6 | Cc1cc2nc3ccccc3n2c2ccccc12 | > 10 µM | > 10 µM | > 10 µM | > 10 µM | > 10 µM | > 10 µM | > 10 µM | > 10 µM | > 10 µM |  |  |  |  |  |  |  |  | 
7 | Cc1cc(S(=O)(=O)Nc2nc3cscc3c(=O)n2N)c(S)cc1Cl | > 100 µM | > 100 µM | > 100 µM | > 100 µM | > 100 µM | > 100 µM | > 100 µM |  | > 100 µM | > 100 µM |  |  |  |  |  |  |  | 
8 | C/C(=C\Cc1ccc(F)cc1)CCCCCC/C(C)=C/Cc1ccc(F)cc1 | 26.7 µM | 34.2 µM |  | 68.6 µM |  | 24.6 µM | 5.61 µM | 42.1 µM | 27.8 µM | 79 µM |  |  |  |  |  |  |  | 
9 | Cc1ccc(-n2nncc2[Si](C)(C)C)s1 |  | > 100 µM | > 100 µM | > 100 µM | > 100 µM | > 100 µM |  |  | > 100 µM | > 100 µM |  |  |  |  |  |  |  | 
10 | CC(=O)/C=C/c1ccccc1 | 64.9 µM | > 100 µM | > 100 µM | > 100 µM | > 100 µM | > 100 µM | 97.9 µM | > 100 µM | > 100 µM |  |  |  |  |  |  |  |  | 
11 | CCC1=C(C[C@H]2NCCc3cc(OC)c(OC)cc32)C[C@H]2c3cc(OC)c(OC)cc3CCN2C1 | 0.444 µM | 0.0717 µM | 0.0964 µM | 0.73 µM | 0.229 µM | 0.189 µM |  | 0.0698 µM |  |  |  |  |  |  |  |  |  | 
12 | O=C1CCCCC/C1=C\c1cccc(F)c1 | > 100 µM |  | > 100 µM | > 100 µM | 97.5 µM | > 100 µM | > 100 µM | > 100 µM | > 100 µM | > 100 µM |  |  |  |  |  |  |  | 
13 | CCOc1ccc2nc3nc(=O)[nH]c(C)c3c(NC(C)(CO)CO)c2c1 | > 100 µM | > 100 µM | > 100 µM | > 100 µM |  | > 100 µM | > 100 µM | > 100 µM | > 100 µM | > 100 µM |  |  |  |  |  |  |  | 
14 | Nc1ccc2c(=O)cc(-c3ccc(Br)s3)[nH]c2n1 | > 100 µM | > 100 µM | 29.7 µM | > 53.1 µM | > 100 µM | > 31.9 µM | > 100 µM | > 100 µM | > 100 µM |  |  |  |  |  |  |  |  | 
15 | O=C(Nc1ccc(-n2cc(-c3ccncc3)c(-c3ccc(O)c(Cl)c3)n2)cc1)c1ccc(Cl)c(C(F)(F)F)c1 | > 50 µM | > 50 µM | > 50 µM |  | 2.52 µM | 4.15 µM | > 50 µM | 1.64 µM | > 50 µM |  | 15.6 µM | 2.52 µM | 0.717 µM | 2.82 µM | 3.35 µM | 0.65 µM | 1.35 µM | 1.93 µM
16 | Cn1c2ccccc2n2c3ncccc3c(=O)cc12 | > 100 µM | > 100 µM |  | > 100 µM | > 100 µM | > 100 µM | > 100 µM | > 100 µM | > 100 µM | > 100 µM |  |  |  |  |  |  |  | 
17 | COc1cc2c3c(n(C)c(=O)c2cc1OC)-c1cc2c(cc1/C3=C\CCCCCBr)OCO2 | 0.605 µM | > 100 µM |  | 79.3 µM | 26 µM | > 100 µM | > 100 µM |  | > 100 µM | > 100 µM |  |  |  |  | 5.54 µM |  |  | 
18 | O=C1Nc2cccc(Cl)c2/C1=C\c1c(-c2ccccc2)nc2n1CCS2 | 37.5 µM |  | 46.7 µM | 65.9 µM | 52.9 µM | > 100 µM | 52.1 µM | 42.5 µM | 44.9 µM | 76.5 µM |  |  |  |  |  |  |  | 
19 | COC(=O)C1C(=O)CC(C)(O)C(C(=O)OC)C1c1ccc(N(C)C)cc1 (stereo not drawn) | > 100 µM | > 100 µM | > 100 µM |  |  | > 100 µM | > 100 µM | > 100 µM | > 100 µM | > 100 µM |  |  |  |  |  |  |  | 
20 | O=c1c2ccccc2nc(N/N=C/c2ccc([N+](=O)[O-])cc2)n1-c1ccccc1 | > 100 µM | > 100 µM |  | 64.8 µM | > 100 µM | 62.2 µM | > 100 µM | 32.7 µM | > 100 µM | 46 µM |  |  |  |  |  |  |  | 
21 | c1ccc2c(Nc3ncco3)cccc2c1 | > 10 µM | > 10 µM | > 10 µM | > 10 µM |  | > 10 µM | > 10 µM |  | > 10 µM | > 10 µM |  |  |  |  |  |  |  | 
22 | O=C1c2ccncc2C(=O)c2c(O)ccc(O)c21 | 25.9 µM | 23.6 µM | 16.3 µM |  | 30.4 µM | 25.1 µM | 32.8 µM | 16.8 µM |  |  |  |  |  |  |  |  |  | 
23 | CCOC(=O)CCC(NC(=O)C(Cc1ccc([N+](=O)[O-])cc1)NC(=O)OC(C)(C)C)C(=O)NC(CCC(=O)OCC)C(=O)OCC (stereo not drawn) (Boc-[Phe(4-NO2)]-Glu(OEt)-Glu(OEt)-OEt; configuration not given here) | 38.3 µM |  | 30.9 µM |  | 43.3 µM |  | 28.1 µM | 30.2 µM |  | 45.1 µM |  |  |  |  |  |  |  | 
24 | CCOC(=O)C1CCC(=O)N1C(=O)c1cccc(Cl)c1 (stereo not drawn) | > 100 µM |  |  |  | > 100 µM | > 100 µM | > 100 µM | > 100 µM | > 100 µM | > 100 µM |  |  |  |  |  |  |  | 

Source: PubChem BioAssay (NCI)
